Experimental data as given in patent US9481734B2, “Immunoglobulin cleavage fragments and disease indicators and compositions for detecting and binding such” (Janssen Biotech, Inc., priority 2007, dated 2016).
Each block holds one molecule with its values, some of them ahead of it. No end group written: not given here. *: point of attachment. Biotin = O=C1N[C@H]2[C@H](CS[C@H]2CCCCC(=O)*)N1

Columns and labels:
[1] = test system: Fab fragment of the 2095-2 antibody; conditions: Biacore, 25° C., 1:1 (Langmuir) model
Method: The specificity of binding was further examined using a Fab fragment of the 2095-2 antibody using a surface plasmon resonance platform (Biacore). Briefly, the Fab was immobilized to a CM5 sensor chip in a Biacore 2000 at three different surface densities (8500, 1650, and 350 RU) using standard NHS/EDC coupling. The running buffer contained 10 mM HEPES pH 7.4, 150 mM NaCl, and 0.01% Tween-20. Data were collected at 25° C.
Three N-terminally biotinylated peptides were tested for binding of to the immobilized Fab: WT, representing the expected sequence of a peptide fragment from a human IgG1 cleavage site after cleavage by the Streptococcus pyogenes IdeS protease; E233A, representing a variant of having a single alanine substitution at the amino acid residue four positions upstream of the C-terminus; and L234A, a variant having a single alanine substitution at the amino acid residue three positions upstream from the C-terminus. The peptides were modified by substituting serine for cysteine to make them compatible with the coupling chemistry and preserve the monomeric structure.
Peptides Wild type and E233A were tested in a 3-fold dilution series using 588 nM and 2.9 uM as the highest concentration, respectively. Peptide L234A was tested at 14.7 uM as the highest concentration in a 2-fold dilution series. Each peptide concentration series was tested in triplicate over the three different density Fab surfaces. The association and dissociation were monitored for 1 minute. Surfaces were regenerated with a 12 second injection of 1/500 dilution of phosphoric acid.

[2] = test system: S. aureus (ATCC 29213); assay: Wiffle ball (tissue cage) S. aureus infection model in rabbits; type: in vivo; conditions: day 2 after inoculation with 6.2 log 10 CFUs, immunized rabbits
From the text: In order to test the capacity of cleavage site specific antibodies to rescue cleaved IgGs in vivo, a model for bacterial infection employing a “tissue cage” (Fernandez J A, et. al. (1997) Antimicrob. Agents Chemother. 43(3):667-671) was adopted. In this system, a wiffle ball is surgically implanted subcutaneously in the dorsal cervical area. The model allows the infectious agents to be localized within an easily accessible fluid compartment, a tissue pouch, and has been used to assess the efficacy of antibiotics against bacteria.
In the final phase of the study, the immunized and non-immunized rabbits were inoculated with 6.2 log 10 colony forming units (CFUs) of S. aureus (ATCC 29213) directly into the wiffle-ball compartments.
The bacterial counts and test subject viability were monitored over the course of two weeks for bacterial counts and survival. The data shown in FIG. 13 indicate that during the first week of the study, the average bacterial counts for control animals were several logs higher than cleavage site specific vaccinated animals. For example, on day 2 the control had 7.2 log10 CFU/ml wiffle ball fluid while the immunized group had 5.2 log10 CFU/ml wiffle ball fluid.

[3] = test system: human IgG1; assay: Proteinase digestion of purified IgG1, Agilent biosizing; type: biochemical; conditions: for disappearance of intact IgG (160,000 Da): Mab1, 1% w/w enzyme, 37° C.
Method: A purified monoclonal antibody comprising a human IgG heavy chain was contacted with the proteases described and sampling was conducted over various durations of contact. Fragmentation in the samples was evaluated using the Agilent microfluidics “lab-on-a-chip” technology for in vitro biosizing (Goetz H et al. Biochemical and Biophysical Methods 60; 281-293, 2004).
Proteinase digestions of purified IgGs were carried out at pH 7.5 in phosphate-buffered saline (PBS) or, for the metalloproteinases, in Tris-buffered saline buffer at 37° C. Calcium chloride was included in the metalloproteinase reactions at 1 mM for MMP-12 and 10 mM for MMP-3; otherwise no additives were used. Antibody concentrations were typically 1 or 2 mg/mL and reactions were initiated by addition of enzyme to a 1% (w/w) ratio to IgG. Aliquots (10-20 μL) were removed at indicated times and the reactions were stopped either by adjustment to 20 mM EDTA (metalloproteinase incubations) or to 1 mM iodoacetamide (cysteine proteinases) or by rapid freezing.
The major proteolytic cleavage positions in the IgG1 hinge were identified for enzyme-generated fragments by N-terminal sequencing of the purified Fc fragment (MMP-3 and MMP-12) and/or high resolution mass spectrometric analyses of the purified Fab (neutrophil elastase, plasmin) and F(ab′)2 (cathepsin G, glutamyl endopeptidase and IdeS) fragments. Fragmentation was evaluated using the Agilent microfluidics “lab-on-a-chip” technology.

[4] = test system: platelet surface IIb/III3 receptors; assay: Platelet aggregation assay; type: cell-based; conditions: 5 μM adenosine diphosphate (ADP), compared with intact c7E3 IgG
Method: c7E3 inhibits platelet aggregation by binding to platelet surface IIb/III3 receptors—thereby blocking the ability of fibrinogen to bind to the receptors on activated platelets and to clump them together. The respective inhibitory profiles of intact and single-cleaved c7E3 IgG were tested in a platelet aggregation assay. Platelet aggregation is measured as an increase of light transmission through a platelet suspension after activation with a physiological agonist. The inhibition is compared to control aggregation to 5 μM adenosine diphosphate (ADP). The percent inhibition was calculated as: control aggregation−test aggregation×100%, divided by control aggregation.

[5] = test system: platelets; assay: Restoration of function study in dogs, platelet counts; type: in vivo; conditions: c7E3 variants 0.05 mg/kg, mAb 2095-2 0.5 mg/kg after 10 min delay, groups of 3 animals
Method: To be consistent with the prior experiments, the variants of c7E3 were all administered at the 0.05 mg/kg dose. The unique aspect of the experiment (groups 6 and 7) involves the infusion of the first targeting mAb followed by the cleavage site specific mAb after a 10 minute delay. The cleavage site specific IdeS cleavage site mAb, 2095-2, was administered at 0.5 mg/kg; 10-fold higher than the dose used for all of the c7E3 variants. The higher dose was chosen in order to maximize the complexation of cleavage site specific mAb with platelet-bound c7E3 variants. All mAbs were delivered by slow infusion over a 20 minute period. Platelet counts were monitored over a 96-hour period. The platelet counts were normalized to the pre-dose count within each animal for clarity of presentation and to minimize the normal variability in numerical platelet counts in these small 3-animal groups.

[6] = test system: platelets; assay: Test infusions of c7E3 IgG in dogs, platelet depletion; type: in vivo; conditions: 0.05 mg/kg dose, calculated
From the text: First, the c7E3 antibody antigen binding and platelet depletion parameters were established in dogs.

[7] = test system: platelets; assay: Platelet counts in dogs, intact versus single-cleaved c7E3 IgG; type: in vivo; conditions: 0.05 mg/kg
Method: c7E3 IgG and c7E3 IgG single-cleaved by IdeS protease were also compared in vivo. Three groups of 5 animals received either saline control, intact c7E3 IgG (0.05 mg/kg) or c7E3 single-cleaved IgG (0.05 mg/kg). Platelet counts were monitored at baseline and at 2, 24, 48, 72 and 96 hours post-administration. Limiting the study to 5 days minimized the likelihood of anti-c7E3 immune responses that might confound the interpretation of the results. The results are presented in FIG. 3 as the mean platelet count±SD for each animal group at each time point. The extent of the error bars connotes the normal variability of platelet counts in different animals (for example, the predose counts for the 5 animals in the single-cleaved IgG treatment group were 175,000, 355,000, 305,000, 276,000 and 334,000 per μL, respectively).

Sequence of human IgG1 (P01857 99-224 limits assumed): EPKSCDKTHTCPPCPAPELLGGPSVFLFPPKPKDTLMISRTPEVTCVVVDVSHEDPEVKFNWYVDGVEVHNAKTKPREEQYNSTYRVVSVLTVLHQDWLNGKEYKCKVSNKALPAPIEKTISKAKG

Molecule: Biotin-TSPPSPAPALLG [E233A]
ka(M-1s-1) × 10^−5 [1]: 7.29 ± 0.03 M-1s-1 × 10^−5
kd [1]: 0.1070 ± 0.04 s⁻¹

Molecule: Biotin-TSPPSPAPEALG [L234A]
ka(M-1s-1) × 10^−5 [1]: 1.24 ± 0.01 M-1s-1 × 10^−5
kd [1]: 1.03 ± 0.01 s⁻¹

Molecule: Biotin-TSPPSPAPELLG [Wt]
ka(M-1s-1) × 10^−5 [1]: 5.22 ± 0.04 M-1s-1 × 10^−5
kd [1]: 0.00443 ± 0.02 s⁻¹

Molecule: C-T-S-P-P-S-P-S-P-A-P-E (CTSPPSPSPAPE; also: conjugated to KLH) [GluV8-cleavage site peptide analogue]
bacterial count [2]: 5.2 log10 CFU/ml wiffle ball fluid

Molecule: Glutamyl endopeptidase I (Glu V8 protease): Staph. aureus serine endopeptidase
disappearance of intact IgG (160,000 Da) [3]: several hours

disappearance of intact IgG (160,000 Da) [3]: several hours
Molecule: Stromelysin (MMP-3): human metalloendopeptidase

Major Product ([3]; human IgG1, None denotes no detectable cleavage in 24 hours): None
Molecule: Tryptase: human serine endopeptidase

Molecule: c7E3 sc IgG: c7E3 IgG single-cleaved by IdeS protease
binding/inhibition of platelet aggregation after single lower hinge cleavage [4]: no loss of binding/inhibition
effect on platelet numbers [5]: without effect on platelet numbers

B1: c7E3 IgG: anti-platelet integrin (αIIbβIIIa) murine-human IgG1 chimeric antibody (antibody, chains of the INN, looked up, V domains shown)
VH: EVQLQQSGTVLARPGASVKMSCEASGYTFTNYWMHWVKQRPGQGLEWIGAIYPGNSDTSYIQKFKGKAKLTAVTSTTSVYMELSSLTNEDSAVYYCTLYDGYYVFAYWGQGTLVTVSA
VL: EIVLTQSPVTLSVTPGDSVSLSCRASRDISNNLHWFQQTSHESPRLLIKYASQSMSGIPSRFSGSGSGTDFTLSINSVETEDFGMYFCQQTNSWPYTFGGGTKLEIK
modifications: IgG1
notes: anti-platelet integrin (αIIbβIIIa) murine-human IgG1 chimeric antibody
αIIbβ3 receptor blockade [6]: about 5%
nadir of platelet numbers [7]: 24 h
recovery of platelet counts ([7]; by 96 hours): approximately 50 % of the pre-dose level
effect on platelet numbers ([7]; groups of 5 animals, 96-hour monitoring): substantial decrease of platelet numbers

B2: c7E3 F(ab′)2: F(ab′)2 of c7E3 prepared using the bacterial enzyme IdeS (antibody, chains of the INN, looked up, V domains shown)
VH: B1 VH
VL: B1 VL
modifications: F(ab')2 IdeS-generated
notes: F(ab′)2 of c7E3 prepared using the bacterial enzyme IdeS
effect on platelet numbers [5]: without effect on platelet numbers
